Test results from article PMC6271467, “The Anthraquinone Derivatives from the Fungus Alternaria sp. XZSBG-1 from the Saline Lake in Bange, Tibet, China” (Molecules, 2014).

Legend:
Type in all cases: cell-based
HeLa = assay: Cytotoxicity, MTT assay, HeLa; conditions: Homo sapiens, 48 h exposure, HeLa cells
Procedure: (§1) Compounds 1–11 were evaluated for cytotoxic activity against several human cancer cell lines by MTT assay. […] The other compounds show no notable inhibitory activity against any tested cancer cell lines.
(§2) MCF-7/ADR, HeLa, HCT-116 cell lines were cultured in Dulbeccos’ modification Eagle’s medium (DMEM, Invitrogen, Carlsbad, CA, USA) supplemented with 10% fetal bovine serum (FBS, Hyclone, Logan, UT, USA), 2 mM L-glutamine, 100 μg/mL streptomycin and 100 U/mL penicillin (Invitrogen). The cells were incubated at 37 °C in a humidified atmosphere with 5% CO2.
(§3) Cells were harvested during logarithmic growth phase and seeded in 96-well plates at a density of 1 × 10^4 cells/mL, and cultured at 37 °C in a humidified incubator (5% CO2) for 24 h, followed by exposure to various concentrations of compounds tested for 48 h. Subsequently 20 μL of MTT (Genview, Houston, TX, USA) solution (5 mg/mL) was added to each well and mixed, the cells were then incubated for an additional 4 h. Culture supernatant was moved, 150 μL of DMSO (Sangon Biotech, Shanghai, China) was added to each well to fully dissolve the MTT-formazan crystals. Cell growth inhibition was determined by measuring the absorbance (Abs) at λ = 570 nm using a microplate reader and calculated according to the following equation: Growth inhibition = (1 − OD of treated cells/OD of control cells) × 100%
(§4) The half maximal inhibitory concentrations (IC50) were obtained from liner regression analysis of the concentration-response curves plotted for each tested compound [17, 18].

HCT-116 = assay: Cytotoxicity, MTT assay, HCT-116; conditions: Homo sapiens, 48 h exposure, HCT-116 cells
Procedure: as §1, §2, §3, §4

MCF-7/ADR = assay: Cytotoxicity, MTT assay, MCF-7/ADR; conditions: Homo sapiens, NCI/ADR-RES, 48 h exposure, MCF-7/ADR cells
Procedure: as §1, §2, §3, §4

SMILES	IC50 (HeLa) [µM]	IC50 (HCT-116) [µM]	IC50 (MCF-7/ADR) [µM]
COc1cc(O)c2c(c1)C(=O)C13OC1(C2=O)[C@H](O)[C@@H](O)[C@@](C)(O)[C@H]3O (relative stereo) [Compound 1, (1R*,2R*,3R*,4R*)-1,2,3,4,8-pentahydroxy-6-methoxy-3-methyl-1,2,3,4-tetrahydro-4a,9a-epoxyanthracene-9,10-dione]	43.7 ± 4.02	23.2 ± 2.85	18.5
COc1cc(O)c2c(c1)C(=O)C1=C(C2=O)[C@H]([C@H]2C3=C(C(=O)c4cc(OC)cc(O)c4C3=O)[C@H](O)[C@](C)(O)[C@H]2O)[C@H](O)[C@@](C)(O)[C@H]1O (relative stereo) [Compound 2, (1S*,1'S*,2R*,2'R*,3S*,3'S*,4S*,4'S*)-1,1',2,2',3,3',5,5'-octahydroxy-7,7'-dimethoxy-2,2'-dimethyl-1,1',2,2',3,3',4,4'-octahydro-[4,4'-bianthracene]-9,9',10,10'-tetraone]	> 50	> 50	> 100
COc1cc(O)c2c(c1-c1c(OC)cc(O)c3c1C(=O)c1cc(C)c(O)cc1C3=O)C(=O)C1=C(C2=O)[C@H](O)[C@@H](O)[C@@](C)(O)[C@H]1O (relative stereo) [Compound 3, (1S*,2R*,3S*,4S*)-1,2,2',3,4,8,8'-heptahydroxy-6,6'-dimethoxy-3,3'-dimethyl-1,2,3,4-tetrahydro-[5,5'-bianthracene]-9,9',10,10'-tetraone]	> 50	32.4 ± 1.57	
COc1cc(O)c2c(c1-c1c(OC)cc(O)c3c1C(=O)c1cc(C)c(O)cc1C3=O)C(=O)C1=C(C2=O)[C@@H](O)[C@@H](O)[C@@](C)(O)[C@H]1O (relative stereo) [Compound 4, (1R*,2R*,3S*,4S*)-1,2,2',3,4,8,8'-heptahydroxy-6,6'-dimethoxy-3,3' dimethyl-1,2,3,4-tetrahydro-5,5'-bianthracene-9,9',10,10'-tetraone]	> 100	> 50	> 50
COc1cc2c(c(-c3c(O)c(OC)cc4c3C(=O)C3=C(C4=O)[C@@H](O)[C@H](O)[C@](C)(O)[C@@H]3O)c1O)C(=O)C1=C(C2=O)[C@@H](O)[C@H](O)[C@](C)(O)[C@@H]1O [Compound 5, alterporriol E]	> 100	> 100	> 100
COc1cc(O)c2c(c1-c1c(OC)cc(O)c3c1C(=O)C1=C(C3=O)[C@@H](O)[C@H](O)[C@](C)(O)[C@@H]1O)C(=O)C1=C(C2=O)[C@@H](O)[C@H](O)[C@](C)(O)[C@@H]1O [Compound 6, alterporriol D]	> 100	> 100	> 100
COc1cc(O)c2c(c1)C(=O)c1cc(C)c(O)c(-c3c(OC)cc(O)c4c3C(=O)C3=C(C4=O)[C@H](O)[C@@H](O)[C@@](C)(O)[C@H]3O)c1C2=O [Compound 7, alterporriol N]	> 100	> 100	> 100
COc1cc(O)c2c(c1-c1c(OC)cc(O)c3c1C(=O)c1cc(C)c(O)cc1C3=O)C(=O)C1=C(C2=O)[C@@H](O)[C@H](O)[C@](C)(O)[C@H]1O [Compound 8, alterporriol A]	> 50	> 50	45
COc1cc(O)c2c(c1)C(=O)C1=C(C[C@@H](O)[C@@](C)(O)[C@@H]1O)C2=O [Compound 9, altersolanol C]	8.09 ± 0.89	3.03 ± 0.05	> 100
COc1cc(O)c2c(c1)C(=O)C1=C(C2=O)[C@H](O)[C@@H](O)[C@@](C)(O)[C@@H]1O [Compound 10, altersolanol A]	> 100	> 100	> 100
COc1cc(O)c2c(c1)C(=O)c1cc(C)c(O)cc1C2=O [Compound 11, macrosporin]	> 100	> 100	> 100
COc1cccc2c1C(=O)c1c(O)c3c(c(O)c1C2=O)C[C@@](O)(C(=O)CO)C[C@@H]3O[C@H]1C[C@H](N)[C@@H](O)[C@H](C)O1 [EPI, Epirubicin, reference compound]	0.48 ± 0.03	0.96 ± 0.02	2.36
